# Assay results from patent US20240360133A1, “FUSED TRICYCLIC COMPOUND, PREPARATION METHOD THEREFOR AND APPLICATION THEREOF IN MEDICINE” (Jiangsu Hengrui Pharmaceuticals Co., Ltd., priority 2020, published 2024).
# Biological target: T1, human TLR8 (Homo sapiens, UniProt Q9NR97)
# T1 construct: host or cells: HEK-Blue hTLR8 (HEK293)
# T1 sequence (Q9NR97 27-1041): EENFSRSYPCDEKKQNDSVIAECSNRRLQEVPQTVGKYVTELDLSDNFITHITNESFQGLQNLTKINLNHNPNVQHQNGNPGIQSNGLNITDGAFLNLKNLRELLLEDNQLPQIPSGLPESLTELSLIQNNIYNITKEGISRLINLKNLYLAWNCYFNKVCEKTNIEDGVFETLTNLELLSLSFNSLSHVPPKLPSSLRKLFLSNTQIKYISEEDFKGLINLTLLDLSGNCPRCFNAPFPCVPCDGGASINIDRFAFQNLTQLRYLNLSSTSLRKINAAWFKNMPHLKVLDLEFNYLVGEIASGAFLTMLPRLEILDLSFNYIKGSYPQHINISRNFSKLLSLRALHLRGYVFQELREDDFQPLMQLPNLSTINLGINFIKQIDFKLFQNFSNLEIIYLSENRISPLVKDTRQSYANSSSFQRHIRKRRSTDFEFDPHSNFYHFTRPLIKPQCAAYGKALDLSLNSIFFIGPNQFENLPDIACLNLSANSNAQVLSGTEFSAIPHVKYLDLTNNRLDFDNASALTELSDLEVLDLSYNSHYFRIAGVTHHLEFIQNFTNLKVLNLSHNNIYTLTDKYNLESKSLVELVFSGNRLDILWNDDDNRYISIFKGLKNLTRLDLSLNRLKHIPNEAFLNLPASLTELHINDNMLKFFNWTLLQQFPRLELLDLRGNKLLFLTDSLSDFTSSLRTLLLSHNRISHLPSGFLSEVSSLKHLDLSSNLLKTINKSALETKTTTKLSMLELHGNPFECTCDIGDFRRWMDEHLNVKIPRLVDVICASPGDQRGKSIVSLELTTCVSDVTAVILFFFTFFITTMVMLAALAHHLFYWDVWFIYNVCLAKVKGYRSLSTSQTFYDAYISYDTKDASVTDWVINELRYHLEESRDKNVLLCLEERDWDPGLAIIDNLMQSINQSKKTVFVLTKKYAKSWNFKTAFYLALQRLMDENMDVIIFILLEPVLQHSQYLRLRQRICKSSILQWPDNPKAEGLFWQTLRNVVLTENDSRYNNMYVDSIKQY
# Test: Inhibitory effect on human TLR8 pathway (HEK-Blue hTLR8 SEAP reporter)
# Assay type: cell-based
# Conditions: HEK-Blue hTLR8 cells, 6 μM resiquimod, 20 h, SEAP OD620
# Method: • 1. HEK-Blue™ hTLR8 cell (Invivogen) • 2. Resiquimod (R848, Invivogen) • 3. Alkaline phosphatase detection medium (Quanti-Blue Detection, Invivogen) • 4. Blasticidin (Invivogen) • 5. Zeocin (Invivogen) • 6. Normocin (Invivogen) • 7. DMEM/HIGH Glucose (GE Healthcare) • 8. Fetal bovine serum (FBS, Gibco) • 9. Phosphate-buffered saline (Shanghai BasalMedia Technologies Co., Ltd.) • 10. Sterile purified water (made in-house by Shanghai Hengrui) • 11. 15 mL centrifuge tube (Corning) • 12. 96-well formulating plate (Corning) • 13. 96-well flat-bottom cell culture plate (Corning) • 14. Constant-temperature cell incubator (Thermo scientific) • 15. Constant-temperature incubator (Shanghai Yiheng Scientific Instruments Co., Ltd.) • 16. PHERAstar FS microplate reader (BMG Labtech)
# HEK-Blue™ hTLR8 cells were purchased from Invivogen. These cells are HEK293 cells transfected with the human Toll-like receptor 8 (TLR8) gene and the secreted alkaline phosphatase reporter gene (SEAP). The alkaline phosphatase reporter gene (SEAP) is under the regulation of the IFN—P minimal promoter comprising 5 NF-kB and AP-1 binding sites. Upon activation of TLR8 with an agonist, SEAP secretion is induced via downstream NF-kB and AP-1. After addition of an antagonist compound, the pathway described above is inhibited, and SEAP secretion is reduced. The activity of the compounds for the TLR8 pathway was evaluated by measuring OD620 through the SEAP substrate.
# 20 mM test compounds dissolved in 100% DMSO were serially diluted with 100% DMSO to 2000, 400, 80, 16, 3.2, 0.64, 0.128, 0.0256 μM, with blank wells containing 100% DMSO. The compounds and 100% DMSO were then 20-fold diluted in DMEM/HIGH glucose media containing 10% inactivated FBS (complete media, the same applies below). Resiquimod was diluted to 60 μM with sterile water. The 60 μM resiquimod dilution in sterile water was added to a 96-well cell culture plate at 20 μL/well. The above compounds diluted in complete media and 100% DMSO were then added at 20 μL/well to wells containing resiquimod, 20 μL of sterile water and 20 μL of 100% DMSO diluted in the complete medium were added to negative control wells.
# HEK-Blue™ hTLR8 cells were cultured in a DMEM/HIGH glucose medium containing 10% inactivated FBS, 100 μg/mL Normocin, 10 μg/mL blasticidin, and 100 μg/mL Zeocin. Cells that were in a good state of growth and had grown to 70%-8% were collected. The growth medium was discarded, 5-10 mL of PBS pre-heated at 37° C. was added to wash the cells once, and 2-5 mL of pre-heated PBS was added. The cells were cultured at 37° C. for 1-2 min, dispersed by pipetting, transferred to a 15 mL centrifuge tube, and counted, and the cell density was adjusted to 4.8×10^5/mL with the complete medium. After density adjustment, 160 μL of the resulting cell suspension was added to the above 96-well cell culture plate to a final number of cells per well of 76,500/well. The final concentration of resiquimod was 6 μM, and the final concentrations of the test compounds were 10,000, 2000, 400, 80, 16, 3.2, 0.64, and 0.128 nM. The cells were cultured in a 37° C., 5% CO2 incubator for 20 h. Then 20 μL of the supernatant was added to 180 μL of the prepared alkaline phosphatase detection medium and incubated in the dark in a constant-temperature incubator at 37° C. for 120 min. The OD620 absorbance readings were taken on a microplate reader. The inhibition rate was calculated using the following formula: […]
# Inhibition curves were plotted using Graphpad Prism software according to the concentrations of the compounds and the corresponding inhibition rates, and the concentrations of the compounds at which the inhibition rate reached 50%, i.e., IC50 values, were calculated and are shown in Table 2.
row,IC50 [nM],Structure (SMILES)
1,0.8,"Cc1cc(-c2[nH]c3cc4c(nc3c2C(C)C)CNCC4)cc(C)n1 [Example 1, 2-(2,6-Dimethylpyridin-4-yl)-3-isopropyl-5,6,7,8-tetrahydro-1H-pyrrolo[3,2-b][1,7]naphthyridine]"
2,30.4,"Cc1cc(-c2[nH]c3cc4c(nc3c2C(C)C)CN(C(C)C)CC4)cc(C)n1 [Example 2, 2-(2,6-Dimethylpyridin-4-yl)-3,6-diisopropyl-5,6,7,8-tetrahydro-1H-pyrrolo[3,2-b][1,7]naphthyridine]"
3,1.8,"Cc1cc(-c2[nH]c3cc4c(nc3c2C(C)C)CN(CCc2ccc(N3CCNCC3)nc2)CC4)cc(C)n1 [Example 4, 2-(2,6-Dimethylpyridin-4-yl)-3-isopropyl-6-(2-(6-(piperazin-4-yl)pyridin-3-yl)ethyl)-5,6,7,8-tetrahydro-1H-pyrrolo[3,2-b][1,7]naphthyridine]"
4,2.5,"Cc1cc(-c2[nH]c3cc4c(nc3c2C(C)C)CN(Cc2ccc(N3CCNCC3)cn2)CC4)cc(C)n1 [Example 5, 2-(2,6-Dimethylpyridin-4-yl)-3-isopropyl-6-((5-(piperazin-1-yl)pyridin-2-yl)methyl)-5,6,7,8-tetrahydro-1H-pyrrolo[3,2-b][1,7]naphthyridine]"
5,2.2,"Cc1cc(-c2[nH]c3cc4c(nc3c2C(C)C)CN(CC23CCC(N)(CC2)CC3)CC4)cc(C)n1 [Example 7, 4-((2-(2,6-Dimethylpyridin-4-yl)-3-isopropyl-1,5,7,8-tetrahydro-6H-pyrrolo[3,2-b][1,7]naphthyridin-6-yl)methyl)bicyclo[2.2.2]octyl-1-amine]"
6,18.8,"Cc1cc(-c2[nH]c3cc4c(nc3c2C(C)C)CN(CC(N)=O)CC4)cc(C)n1 [Example 8, 2-(2-(2,6-Dimethylpyridin-4-yl)-3-isopropyl-1,5,7,8-tetrahydro-6H-pyrrolo[3,2-b][1,7]naphthyridin-6-yl)acetamide]"
7,0.6,"Cc1c(-c2[nH]c3cc4c(nc3c2C(C)C)CNCC4)cn2ncnc2c1C [Example 9, 2-(7,8-Dimethyl-[1,2,4]triazolo[1,5-a]pyridin-6-yl)-3-isopropyl-5,6,7,8-tetrahydro-1H-pyrrolo[3,2-b][1,7]naphthyridine]"
8,8.2,"Cc1c(-c2[nH]c3cc4c(nc3c2C(C)C)CN(CC(N)=O)CC4)cn2ncnc2c1C [Example 10, 2-(2-(7,8-Dimethyl-[1,2,4]triazolo[1,5-a]pyridin-6-yl)-3-isopropyl-1,5,7,8-tetrahydro-6H-pyrrolo[3,2-b][1,7]naphthyridin-6-yl)acetamide]"
